Measurements from patent US11590108B2, “Pharmaceutical compositions for combination therapy” (Genfit, priority 2017, dated 2023).
Read-outs that look alike come from different tables or passages of the source.

Columns and labels:
[1] = cited from earlier work
TGFβ1-induced hHSC = assay: α-SMA ELISA in TGFβ1-activated human primary hepatic stellate cells (in vitro model of hepatic fibrogenesis); assay type: cell-based
Method: Serum-deprived HSC were preincubated for 1 hour with Elafibranor (A), Cenicriviroc (B), or Bezafibrate (PPAR pan α/γ/δ) before the activation with the profibrogenic cytokine TGFβ1 (1 ng/ml).
After 48 hours of incubation, the expression of α-SMA was measured by ELISA.
The obtained values were transformed into percentage inhibition over TGFβ1 control. Data are presented as mean (quadruplicates)±standard deviation (SD). Statistical analyses were performed by one-way ANOVA followed by Bonferroni post-hoc tests, using Sigma Plot 11.0 software. [*: p<0.05; **: p<0.01; ***: p<0.001 (comparison versus TGFβ1 1 ng/mL group)]. The curve fitting and the calculation of half maximal inhibitory concentration (IC50) were performed with XLFit software 5.3.1.3.
The human primary hepatic stellate cells (hHSC; Innoprot) were cultured in STeCM medium (ScienCell cat #5301) that was supplemented with 2% fetal bovine serum (FBS, ScienCell cat #0010), 1% penicillin/streptomycin (ScienCell cat #0503) and stellate cell growth supplement (SteCGS; ScienCell cat #5352). Cell-culture flasks were coated with Poly-L Lysine (Sigma cat #P4707) for a better adherence.
For these experiments, a checkerboard matrix was generated. […]
The level of α-SMA was measured using a Sandwich ELISA. […]

CDFF-fed mice = assay: Chronic CDFF diet fibrosing NASH mouse model (8 weeks); assay type: in vivo, C57Bl/6J mice; conditions: Elafibranor 3 mg/kg/day, CVC 10 mg/kg/day or both
Method: The preventive effects of Elafibranor alone, CVC alone and their combination were assessed in a fibrosing NASH model of mice fed a CDAA+2% cholesterol+30% Milk fat diet and High Fructose Corn Syrup 55 (55% fructose/45% glucose for a final concentration of 42 g/L) in drinking water (Mells et al J Nutr Biochem 2015). 5-6 weeks old male C57Bl/6J mice were fed a control (CSAA) diet (n=4), CDFF diet (n=12), or CDFF diet supplemented with Elafibranor 3 mg/kg/day, CVC 10 mg/kg/day or combined drugs (Elafibranor 3 mg/kg/day combined to CVC 10 mg/kg/day) (n=8 per group) for 8 weeks.
The body weight, the food and water intake were monitored twice per week. On the last day of treatment, plasma samples were obtained from retro-orbital blood sampling and mice were sacrificed after a 6 h-fasting period. The liver was rapidly excised for biochemical and histological analyses. All animal procedures were performed according to standard protocols and in accordance with the standard recommendations for the proper care and use of laboratory animals.
A technician blinded to the source of each liver specimen performed histological examinations. Virtual slides were generated using the Pannoramic 250 scanner from 3D Histech. For each animal, a score summarizing the main histological lesions of NASH was attributed according to the NASH Clinical Research Network (Kleiner 2005, Brunt 1999). Briefly, steatosis, lobular inflammation and hepatocyte ballooning were scored. The NAFLD Activity Score (NAS score) was established for each individual as the unweighted sum of the steatosis (0-3), lobular inflammation (0-3) and the ballooning (0-2) injury grading.
Alanine aminotransferase (ALT) and aspartate aminotransferase (AST) concentrations were measured in plasma using the Randox kit for Daytona automate (Randox cat #AL 3801 and AS 3804, respectively). Plasma cytokeratin 18-M30, a surrogate marker of apoptosis, was measured using the Mouse Cytokeratin 18-M30 ELISA Kit (CUSABIO cat #CSB-E14265m), according to the manufacturer's recommendations. […]
Quantitative PCR was then carried out using the CFX96 Touch™ Real-Time PCR Detection System (Biorad). […]
Expression levels were normalized using the expression of GAPDH gene as a housekeeping gene of reference in samples. […] Expression levels were determined using the standard curve equation for both the housekeeping gene and the target gene (taking into account the specific PCR efficiency of each target gene).
To achieve this aim, NASH was induced by feeding C57Bl/6J mice with a choline-deficient L-amino-acid-defined-diet supplemented with 2% cholesterol and 30% milk fat, and high fructose corn syrup in drinking water (CDFF diet). […] NASH development was evaluated by histology, liver function tests, and biochemical and molecular analyses.

NASH with liver fibrosis = conditions: cited from earlier work
[2] = CVC 150 mg orally once daily, one year

Compound	solubility ([1]; 99.5% ethanol)	solubility ([1]; acetonitrile, 1-octanol, tetrahydrofuran)	solubility ([1]; aqueous solution at pH 3)	solubility ([1]; aqueous solution from pH 1 to 2)	solubility ([1]; aqueous solution from pH 4 to 13 and in water)	solubility ([1]; ethyl acetate and diethylether)	solubility ([1]; glacial acetic acid, methanol, benzyl alcohol, dimethylsulfoxide, N,N-dimethylformamide)	solubility ([1]; pyridine and acetic anhydride)	antifibrotic activity (α-SMA) (TGFβ1-induced hHSC; 5 μM alone (FIG. 2C))	antifibrotic effect as single agent (α-SMA) (TGFβ1-induced hHSC; hHSC, TGFβ1 1 ng/ml, 48 h, all doses (FIG. 1B, 1C))	NAS score (disease activity) (CDFF-fed mice; 8 weeks (FIG. 4A))	plasma CK18 concentration (CDFF-fed mice; 8 weeks (FIG. 4B))	plasma AST concentration (CDFF-fed mice; 8 weeks (FIG. 4C))	hepatic expression of genes related to inflammation, tissue remodeling and fibrogenesis (CDFF-fed mice; 8 weeks, qPCR (FIG. 5))	fibrosis as compared to placebo (NASH with liver fibrosis; [2])	primary outcome (minimum 2-point improvement in NAS with at least 1-point reduction in lobular inflammation or hepatocellular ballooning) (NASH with liver fibrosis; [2])	efficacy on NASH-induced fibrosis (NASH with liver fibrosis; recent phase 2B study)
CCCCOCCOc1ccc(-c2ccc3c(c2)C=C(C(=O)Nc2ccc([S@@+]([O-])Cc4cncn4CCC)cc2)CCCN3CC(C)C)cc1.CS(=O)(=O)O [CVC mesylate, (S)-8-[4-(2-Butoxyethoxy)phenyl]-1-isobutyl-N-[4-[[(1-propyl-1H-imidazol-5-yl)methyl]sulfinyl]phenyl]-1,2,3,4-tetrahydro-1-benzazocine-5-carboxamide monomethanesulfonoate]	sparingly soluble	slightly soluble	sparingly soluble	freely soluble	practically insoluble	practically insoluble	freely soluble	soluble	–	–	–	–	–	–	–	–	–
CCCCOCCOc1ccc(-c2ccc3c(c2)/C=C(/C(=O)Nc2ccc([S@@+]([O-])Cc4cncn4CCC)cc2)CCCN3CC(C)C)cc1 [CVC, (S,E)-8-(4-(2-Butoxyethoxy)phenyl)-1-(2-methylpropyl)-N-(4-(((1-propyl-1H-imidazol-5-yl)methyl)sulfinyl)phenyl)-1,2,3,4-tetrahydrobenzo[b]azocine-5-carboxamide]	–	–	–	–	–	–	–	–	does not show any antifibrotic activity	did not show a significant effect	no effect	no effect	no effect	no effect	decrease of fibrosis in certain proportion of patients	not met	shown efficacy
